Laboratory results: patent US9669003B2, “Use of flavone and flavanone derivatives in preparation of sedative and hypnotic drugs” (priority 2012, dated 2017)
Marks after values point to notes of the source that are not given here.

Columns and labels:
Type in all cases: in vivo
Kunming mice [1] = assay: Influence on autonomic activity of normal mice (ZIL-2 mice autonomic activity meter, counts within 10 min); details: intragastric, x ± s, n = 10; for Times of activities in 1 h after drug administration/10 min: 1 h after administration; for Times of activities in 2 h after drug administration/10 min: 2 h after administration; for Times of activities in 24 h after drug administration/10 min: 24 h after administration
Summary of the method: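 Activity counts during a 10-min window were taken at 1, 2 and 24 h after dosing in groups of 10 mixed-sex Kunming mice. Compounds were given in 0.5% CMC-Na at 25, 50 or 100 mg/kg. Statistics used Levene's homogeneity test, ANOVA and Dunnett's multiple comparisons.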

Kunming mice [2] = assay: Influence on hypnosis effect with pentobarbital sodium doses at the threshold (50 mg/kg i.p.); details: pentobarbital sodium 50 mg/kg i.p. 60 min later, x ± s, n = 10
Summary of the method: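 Pentobarbital sodium (0.3%, 50 mg/kg i.p.) injected 60 min after a single intragastric dose (25, 50, 100 mg/kg, 0.5% CMC-Na vehicle) in Kunming mice, 10 per group, sexes balanced. Onset and length of sleep (righting reflex lost over 1 min) analysed by ANOVA; sleeping incidence by χ2 test.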

Kunming mice [3] = assay: Influence on hypnosis effect with pentobarbital sodium doses below the threshold (25 mg/kg i.p.); details: pentobarbital sodium 25 mg/kg i.p. 60 min later, sleep observed in 30 min, n = 10
Summary of the method: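 Percentage of mice sleeping within 30 min after subthreshold pentobarbital sodium (25 mg/kg i.p.), defined by loss of righting reflex over 1 min, analysed by χ2. Compound in 0.5% CMC-Na given intragastrically at 25/50/100 mg/kg 60 min before; groups of 10 Kunming mice, both sexes.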

[4] = 25 mg/kg intragastric single dose
[5] = 50 mg/kg intragastric single dose
[6] = 100 mg/kg intragastric single dose
[7] = test drug 25 mg/kg intragastric single dose
[8] = test drug 50 mg/kg intragastric single dose
[9] = test drug 100 mg/kg intragastric single dose

In the case of CCc1cc(C2CC(=O)c3cc([N+](=O)[O-])c(SC#N)c(C4CCNC4)c3O2)ccc1C(=O)c1ccccc1 (stereo not drawn) [Example 54], the “Times of activities in 1 h after drug administration/10 min” value (shortened to “Times of activities in 1 h”) (Kunming mice [1]; 25 mg/kg) is reported as 307.3 ± 65.2 /10 min, the “Times of activities in 2 h after drug administration/10 min” value (from here on “Times of activities in 2 h”) (Kunming mice [1]; 25 mg/kg) is reported as 287.3 ± 72.9 /10 min and the “Times of activities in 24 h after drug administration/10 min” value (“Times of activities in 24 h” for short) (Kunming mice [1]; 25 mg/kg) is reported as 331.2 ± 67.4 /10 min. For the same compound, the “Times of activities in 1 h” value (Kunming mice [1]; 50 mg/kg) was 252.8 ± 62.1 /10 min, the “Times of activities in 2 h” value (Kunming mice [1]; 50 mg/kg) was 240.2 ± 62.6 /10 min and the “Times of activities in 24 h” value (Kunming mice [1]; 50 mg/kg) was 320.7 ± 75.1 /10 min. The “Times of activities in 1 h” value (Kunming mice [1]; 100 mg/kg) was 205.3 ± 42.8 /10 min, the “Times of activities in 2 h” value (Kunming mice [1]; 100 mg/kg) was 198.3 ± 48.5 /10 min and the “Times of activities in 24 h” value (Kunming mice [1]; 100 mg/kg) was 315.3 ± 79.2 /10 min. For the same compound, the duration of sleep (Kunming mice [2]; [4]) was 35.81 ± 17.2 min, the time to sleep (Kunming mice [2]; [4]) was 4.84 ± 1.64 min and the duration of sleep (Kunming mice [2]; [5]) was 43.53 ± 14.97 min. The time to sleep (Kunming mice [2]; [5]) was 4.33 ± 1.87 min, the duration of sleep (Kunming mice [2]; [6]) was 47.53 ± 15.92 min and the time to sleep (Kunming mice [2]; [6]) was 3.63 ± 1.54 min. For the same compound, the “Number of sleeping animals” value (Kunming mice [3]; [7]) was 3, the “rate of sleeping (%)” value (Kunming mice [3]; [7]) was 30% and the “Number of sleeping animals” value (Kunming mice [3]; [8]) was 5. For the same compound, the “rate of sleeping (%)” value (Kunming mice [3]; [8]) was 50** %, the “Number of sleeping animals” value (Kunming mice [3]; [9]) was 7 and the “rate of sleeping (%)” value (Kunming mice [3]; [9]) was 70** %.
